Measurements taken from patent US11702630B2, “In vitro methods of differentiating stem cells into neurons and neurons generated using the same” (The J. David Gladstone Institutes, a testamentary trust …, priority 2016, dated 2023).

Assays:
Type in all cases: cell-based, human
[1] = test system: pluripotent stem cells; assay: Wnt activation in the V2a interneuron protocol, % CHX10+ cells; settings: FIG. 20A
Method: (§1) For the “D0 CHIR treated” group, the GSK3 inhibitor, 2 μM CHIR990201 was added into the V2a interneuron protocol from day 0 to day 7. For the “D-2 CHIR treated” group, pluripotent stem cells were initially seeded at a higher density (120 k cells/cm^2) in the presence of 2 μM CHIR990201 for two days. The cells were then dissociated and re-plated at 25 k/cm^2 to begin the V2a interneuron protocol. CHIR990201 was kept in the media composition from day 0 to day 7. Further culture and analysis proceeded as previously described.

[2] = test system: pluripotent stem cells; assay: Wnt activation in the V2a interneuron protocol, gene expression of cervical and thoracic markers; settings: FIG. 20B
Method: Samples were lysed and RNA was extracted using the E.Z.N.A. Total RNA Kit (Omega Biotek, Norcross, Ga.). RNA (500 ng) was reverse-transcribed into cDNA using the iScript cDNA synthesis kit (BioRad, Hercules, Calif.). RT-qPCR was performed using Fast SYBR Green Master Mix (Life Technologies) and the primers listed in Table 1 below were annealed at 61° C. on the Step One Plus Real-Time PCR System (Life Technologies). Fold changes were calculated using the ΔΔCt method. For high throughput gene expression analysis, Fluidigm was used. Preamplified cDNA samples and primers were mixed with Sso Fast EvaGreen Supermix (BioRad) then loaded onto a 96.96 Dynamic Array integrated fluidic circuit (IFC) and ran on a BioMark HD system.
as §1

[3] = test system: hPSCs; assay: Total number of cells and yield of CHX10+ cells per input pluripotent cell at day 17; settings: for number of viable cells per 24-well culture at day 17: 100 nM RA and 100 nM pur, FIG. 2B
Method: (§2) hPSCs were seeded in mTeSR supplemented with 10 μM ROCK inhibitor and dual SMAD inhibitors 0.2 μM LDN193189 and 10 μM SB431542 (StemGent, Cambridge, Mass.) at 5,000-100,000 cells/cm^2 onto 24-well plates coated with Matrigel. On day 3, medium was changed to mTeSR supplemented with dual SMAD inhibitors only. On day 5, the base medium was switched to neural induction medium (DMEM F:12 (Corning), N2 supplement (Life Technologies, Carlsbad, Calif.), L-Glutamine (VWR), 2 μg/ml heparin (Sigma Aldrich, St. Louis, Mo.), non-essential amino acids (VWR), penicillin-streptomycin (VWR) supplemented with fresh 0.4 μg/ml ascorbic acid (Sigma Aldrich) and 10 ng/ml brain derived neurotrophin factor (BDNF, R&D Systems, Minneapolis, Minn.)) supplemented with dual SMAD inhibitors and 10 nM-10 μM retinoic acid (Sigma Aldrich). On day 7, dual SMAD inhibition was ceased and 10 nM-10 μM retinoic acid, 10 nM-10 μM pur (EMD Millipore, Darmstast, Germany) and 100 nM-10 μM N—[N-(3,5-Difluorophenacetyl)-L-alanyl]-S-phenylglycine t-butyl ester (DAPT) were added to the neural induction medium. Medium was changed every 2 to 3 days throughout the differentiation, with fresh supplements added each time for up to 17 days.

[4] = test system: hPSCs; assay: Flow cytometry of CHX10 at day 17 of V2a interneuron differentiation
Method: as §2, with “([…],” for “(StemGent,”, “On day 7, dual SMAD inhibition was ceased and 10 nM-10 μM retinoic acid, 10 nM-10 μM pur (EMD Millipore, Darmstast, Germany) and 100 nM-10 μM N—[N-(3,5-Difluorophenacetyl)-L-alanyl]-S-phenylglycine t-butyl ester (DAPT) were added to the neural induction medium.” left out

[5] = 2 μM CHIR added at D0, day 0 to day 7
[6] = 2 μM CHIR added at D-2 and passage with CHIR, kept to day 7

Structure (SMILES): Cc1cnc(-c2cnc(NCCNc3ccc(C#N)cn3)nc2-c2ccc(Cl)cc2Cl)[nH]1 [CHIR, 6-[[2-[[4-(2,4-Dichlorophenyl)-5-(5-methyl-1H-imidazol-2-yl)-2-pyrimidinyl]amino]ethyl]amino]-3-pyridinecarbonitrile]
- % of CHX10+ cells [1, 5]: did not decrease
- % of CHX10+ cells [1, 6]: greatly increased
- cervical and thoracic gene expression [2, 5]: slightly increased
- cervical and thoracic gene expression [2, 6]: increased

Structure (SMILES): C[C@H](NC(=O)Cc1cc(F)cc(F)c1)C(=O)NC(C(=O)OC(C)(C)C)c1ccccc1 (some centres unmarked) [DAPT]
- increase in number of CHX10+ cells per input pluripotent cell ([3]; 1 μM DAPT compared with 5 μM DAPT, FIG. 2C): ~50%
- number of viable cells per 24-well culture at day 17 ([3]; DAPT 1 μM): 4.40 million cells
- number of viable cells per 24-well culture at day 17 ([3]; DAPT 5 μM): 2.85 million cells
- CHX10+ population at day 17 ([4]; DAPT 5 μM from day 7, RA and pur 100 nM each, FIG. 1E): ~15%
- CHX10+ population at day 17 ([4]; DAPT 1 μm from day 7, RA and pur 100 nM each, FIG. 1E): ~15%

Structure (SMILES): CC1=C(/C=C/C(C)=C/C=C/C(C)=C/C(=O)O)C(C)(C)CCC1 [RA, retinoic acid]
- CHX10+ population at day 17 ([4]; RA 100 nM starting at day 5, pur 1 μM and DAPT 5 μM from day 7, FIG. 1C): ~6%

Structure (SMILES): c1ccc2c(Oc3nc(Nc4ccc(N5CCOCC5)cc4)c4ncn(C5CCCCC5)c4n3)cccc2c1 [pur, 9-Cyclohexyl-N-[4-(4-morpholinyl)phenyl]-2-(1-naphthalenyloxy)-9H-purin-6-amine]
- Chx10+ cells after 17 days of differentiation ([4]; pur 100 nM from day 7, 100 nM RA and 5 μM DAPT, FIG. 1D): ~30%
